Results reported in patent publication US12365739B2, “Monoclonal antibodies to angiotensin-(1-12), compositions including the same, and methods of use thereof” (Wake Forest University Health Sciences, priority 2021, dated 2025).
Blank lines part the entries; values can stand above or below the compound they belong to.

How the values were obtained:
[1] = system: TGR(hAGT)L1623 rats; conditions: chronic administration; cited from earlier work
[2] = molecular target: T1, Ang II (Homo sapiens, UniProt P01019); assay: Specificity of immunoneutralization: pressor response to Ang II; format: in vivo
T1 construct: host or cells: injected into TGR(hAGT)L1623 rats
Method: In a separate group of 12 TGR(hAGT)L1623 rats (6 females) the blood pressure and heart rate responses to intravenous bolus injection of a monoclonal antibody directed against the human amino acid sequence of Ang-(1-12) [Ang-(1-12)-mAb] was administered at a dose of 30 mg/kg. […] The Ang-(1-12)-mAb was diluted in physiological saline to a concentration of 30 mg in a volume not to exceed 1 mL of buffered saline. The specificity of the immunoneutralization of Ang-(1-12) was evaluated in additional experiments in which the rat sequence of Ang-(1-12) (300 pmol/kg, n=2); Ang II (50 pmol/kg; n=3 TGR(hAGT)L1623 rats) or an […] mouse IgG (30 mg/kg, n=4 TGR(hAGT)L1623 rats; Innovative Research, Inc. Novi, MI) were administered intravenously.

[3] = system: Sprague Dawley (SD) rats and TGR(hAGT)L1623 rats; assay: Systemic vasoconstrictor activity of intravenous h-Ang-(1-12); format: in vivo, rat; conditions: for time to peak of increase in mean arterial pressure: 75-300 pmol/kg i.v.
Method: Efficacy of Ang-(1-12) Immunoneutralization in vivo: We examined the systemic vasoconstrictor activity of Ang-(1-12) (dose range 75-300 pmol) in 20 (10 females) Sprague Dawley (SD) rats (age 12-weeks) and 20 (10 female) other rats expressing the human sequence of the AGT gene [TGR(hAGT)L1623] (age 10-12 weeks) following induction of general anesthesia with thio-butabarbital sodium [Inactin® (135 mg/kg, i.p.)] and tracheal intubation for mechanical ventilation. Plastic catheters were introduced into a left carotid artery [PE-50 catheter attached to a heparinized saline wash syringe (15 USP U/mL) and a femoral vein (PE-10) for drug delivery. Phasic and mean arterial pressures, recorded with a True Wave pressure transducer (Edwards Lifesciences, Co, Irvine, CA) connected to the arterial cannula, were processed by a data-acquisition and analysis system with Acknowledge 5 software (MP160, BIOPAC System Inc., Goleta, CA). Heart rate was derived by the software from the electrical analysis of the rise portion of the pressure waveform.

[4] = system: isolated carotid artery rings; assay: Ang-(1-12) constrictor activity in isolated carotid artery rings; design: species or system rat; conditions: concentration of 5×10^−1; SD and TGR(hAGT)L1623 rats; FIG. 7
Description: Efficacy of Ang-(1-12) Immunoneutralization in Isolated Carotid Arteries. The ability of the Ang-(1-12)-mAb to block Ang-(1-12) vasoconstrictor activity in 6 SD and 3 TGR(hAGT)L1623 rats was further assessed in isolated carotid artery rings that were mounted in organ chambers as described elsewhere.^3 Under a dissecting microscope, both carotid arteries were dissected free of adventitial tissue, cut into 1.5-2 mm segments and mounted on a myograph (Multi Myograph, Model 610M Danish Myo Technologies, Aarhus, Denmark) using two stainless steel hooks. In all the arterial segments, the endothelium was disrupted by passing a human hair through the lumen of the vessel. The myograph chamber was filled with Krebs-Henseleit buffer (KHB) solution, maintained at 37° C. and aerated with 95% O2/5% CO2. The vessels were washed and incubated for 30 min before determining the optimal diameter. Each arterial segment was stretched to its individual optimal lumen diameter following the normalization procedure previously described. In all studies, after obtaining the optimal diameter, a 30-min equilibration period preceded the addition of the test substances. Contractile responses to a single dose of 62.5 mM KCl was obtained for all segments by calculating the average of three consecutive doses tested at 15 min intervals. This response was used to normalize tension between individual arterial segments. […]

Compound: CCCCC(=O)N(Cc1ccc(-c2ccccc2-c2nnn[nH]2)cc1)[C@H](C(=O)O)C(C)C [valsartan]
effect on hypertension [1]: Reversal of the hypertension

peak mean arterial pressure after bolus intravenous Ang II ([2]; 30-60 min after delivery of the Ang-(1-12) mAb, baseline 100±12 mm Hg): 117±13 mm Hg
peak mean arterial pressure after bolus intravenous Ang II ([2]; before the Ang-(1-12) mAb, baseline 95±6 mm Hg): 114±8 mm Hg
Compound: angiotensin II (DRVYIHPF; listed as Homo sapiens) [Ang II]

Compound: human angiotensin-(1-12) (DRVYIHPFHLVI; listed as Homo sapiens) [h-Ang-(1-12)]
time to peak of increase in mean arterial pressure ([3]; SD rats): 32.45 ± 1.08 s
time to peak of increase in mean arterial pressure ([3]; TGR(hAGT)L1623 rats): 36.20 ± 1.52 s
change in mean arterial pressure ([3]; i.v. doses between 75 pmol/kg and 300 pmol/kg): rapid and dose-dependent increases
constrictor responses in carotid artery rings normalized for KCL [4]: significant constrictor responses
